Structures can show the parent of a compound that is named as a salt. Where two headings read alike, the source gives them in different places.
Legend:
HIV protease = biological target: T1, HIV protease (Human immunodeficiency virus type 1 group M subtype B, UniProt P04585); assay: HIV Protease Assay; type: biochemical
T1 construct: and purified protease
Procedure, shortened: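 Purified protease cleaved 450 μM octapeptide substrate in 50 mM sodium acetate pH 5.5 with 100 μg/ml BSA for 30 minutes at 37° C; product analyzed by reverse-phase HPLC at UV220 after H3PO4 quench. Inhibitors tested at final 10 μM with 4% DMSO.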

[1] = tested on: RF strain of HIV (CEM-SS cells); assay: Cell Culture Anti-HIV Activity (cell viability, formazan); type: cell-based; conditions: Human immunodeficiency virus 1, CEM-SS, 144 h, CEM-SS cells, RF strain of HIV, multiplicity of infection 0.04, 6 days at 37° C., 450 nm; read-out: HIV (CEM Cells) IC50
Procedure, shortened: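 CEM-SS cells (5000/well) infected with HIV RF at MOI 0.04, exposed to half-log serial compound dilutions, incubated 6 days at 37° C. Viability read by tetrazolium reduction to formazan, absorbance 450 nm. IC50 is the concentration raising formazan in infected cells to 50% of uninfected, drug-free cells.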

[2] = pH 5.5, 10 μM inhibitor, 4% DMSO, 450 μM substrate, pH 5.5, 30 minutes at 37° C., RP-HPLC, read-out: HIV Protease % Inhibition at 10 μM
[3] = pH 5.5, read-out: HIV Protease % Inhibition at 10 μM

Structure (SMILES) | inhibition at 10 µM (HIV protease; [2]) | IC50 [1] | inhibition at 10 µM (HIV protease; [3])
CC(C)(C)OC(=O)N[C@@H](Cc1ccccc1)[C@H](O)CNC[C@@H](O)[C@H](Cc1ccccc1)NC(=O)[C@@H](NC=O)C(C)(C)C [Compound 234, [1S-[1R*,2S*(2S*,3R*),(R*)]]-[3-[[3-[[3,3-Dimethyl-2-(formylamino)-1-oxobutyl]amino]-2-hydroxy-4-phenylbutyl]amino]-2-hydroxy-1-(phenylmethyl)propyl]carbamic acid, 1,1-dimethylethyl ester] | 100% | 0.08 µM | 
CNC(=O)N(C)[C@H](C(=O)N[C@@H](Cc1ccccc1)[C@H](O)CNC[C@@H](O)[C@H](Cc1ccccc1)NC(=O)OC(C)(C)C)C(C)(C)C (relative stereo) [Compound 342, [1R*,2S* (2S*, 3R*)]-N-[3-[[3-[[(1,1-Dimethylethoxy)carbonyl]amino]-2-hydroxy-4-phenylbutyl]amino]-2-hydroxy-1-(phenylmethyl)propyl]-N^2-[(methylamino)carbonyl]-N^2-3-dimethyl-L-valinamide] | 99% | 0.07 µM | 
CC(C)(C)OC(=O)N[C@@H](Cc1ccccc1)[C@H](O)CNC[C@@H](O)[C@H](Cc1ccccc1)NC(=O)OC(C)(C)c1ccccc1 [Compound 156, [1S-(1R*,2S*)]-2-hydroxy-1-(phenylmethyl)-3,1-propanediyl)biscarbamic acid, 1,1-dimethylethyl-1-methyl-1-phenylethyl ester] | 85% | > 6 µM | 
CC(C)(C)OC(=O)N[C@@H](Cc1ccccc1)[C@H](O)CNC[C@@H](O)[C@H](Cc1ccc(OCC(=O)N2CCCCC2)cc1)NC(=O)OC(C)(C)C [Compound 332] |  | 0.07 µM | 100%
CCC(C)(C)OC(=O)N[C@@H](Cc1ccccc1)[C@H](O)CNC[C@@H](O)[C@H](Cc1ccccc1)NC(=O)OC(C)(C)CC [Compound 138, [R-(R*,S*)]-[Iminobis[2-hydroxy-1-(phenylmethyl)-3,1-propandiyl]]biscarbamic acid, bis(1,1-dimethylpropyl)ester] | 98% | > 0.8 µM | 
CC(C)(C)OC(=O)N[C@@H](Cc1ccccc1)[C@@H](O)CNC[C@H](O)[C@H](Cc1ccccc1)NC(=O)OC(C)(C)C [Compound 3, [1S-[1R*,2R*(2R*,3R*)]]-[3-[[3-[[(1,1-Dimethylethoxy)carbonyl]amino]-2-hydroxy-4-phenylbutyl]amino]-2-hydroxy-1-(phenylmethyl)propyl]carbamic acid, 1,1-dimethylethyl ester] | 0% | > 3.2 µM | 
CC(C)(C)OC(=O)N[C@@H](Cc1ccccc1)[C@H](O)CNC[C@@H](O)[C@H](Cc1ccccc1)NC(=O)OC1(C)CCCC1 [Compound 159, [1S-(1R*,2S*)]-[Iminobis[2-hydroxy-1-(phenylmethyl)-3,1-propanediyl]]bis-[carbamic acid], 1,1-dimethylethyl 1-methyl-cyclopentyl ester] | 100% | 1.3 µM | 
CC(C)[C@H](NC(=O)OCc1nc2ccccc2o1)C(=O)N[C@@H](Cc1ccc(O)cc1)[C@H](O)CNC[C@@H](O)[C@H](Cc1ccccc1)NC(=O)OC(C)(C)C (relative stereo) [Compound 288, [1R*,2S*(2S*,3R*)]-N^2-[[(2-Benzoxazolyl)methoxy]carbonyl]-N-[3-[[3-[[(1.1-dimethylethoxy)carbonyl]amino]-2-hydroxy-4-phenylbutyl]amino]-2-hydroxy-1-[(4-hydroxyphenyl)methyl]propyl]-L-valinamide] | 100% | 0.47 µM | 
CC(C)[C@H](NC(=O)[C@@H](N)Cc1ccccc1)C(=O)N[C@@H](Cc1ccccc1)[C@H](O)CNC[C@@H](O)[C@H](Cc1ccccc1)NC(=O)OC(C)(C)C [Compound 84, [S-[1R*,2S*(2S*,3R*)]-N-[3-[[3-[[(1,1-Dimethylethoxy)carbonyl]amino]-2-hydroxy-4-phenylbutyl]amino]-2-hydroxy-1-(phenylmethyl)propyl)-L-valyl]-L-phenylalanamide, fumarate (2:3) salt] | 99% | 1.2 µM | 
CC(C)[C@H](NC(=O)OC[C@@H](O)CO)C(=O)N[C@@H](Cc1ccccc1)[C@H](O)CNC[C@@H](O)[C@H](Cc1ccccc1)NC(=O)OC(C)(C)C (relative stereo) [Compound 202, [[1R*,2S*(2S*,3R*)],N^2-(R*)]-N^2-[(2,3-Dihydroxypropoxy)carbonyl]-N-[3-[[3-[[(1,1-dimethylethoxy)carbonyl]amino]-2-hydroxy-4-phenylbutyl]amino]-2-hydroxy-1-(phenylmethyl)propyl]-L-valinamide] | 95% | 16 µM | 
CC(O)COc1ccc(C[C@H](NC(=O)OC(C)(C)C)[C@H](O)CNC[C@@H](O)[C@H](Cc2ccccc2)NC(=O)OC(C)(C)C)cc1 (stereo partly drawn) [Compound 306, [1S-[1R*, 2S* (2S*, 3R*)]-[3-[[(1,1-Dimethylethoxy)carbonyl]amino]-2-hydroxy-4-[4-(2-hydroxypropoxy)phenyl]butyl]amino]-2-hydroxy-1-(phenylmethyl)propyl]carbamic acid, 1.1-dimethylethyl ester] | 100% | 0.06 µM | 
CC(C)(C)CC(=O)N[C@@H](Cc1ccccc1)[C@H](O)CNC[C@@H](O)[C@H](Cc1ccccc1)NC(=O)OC(C)(C)C [Compound 60, [1S-[1R*,2S*(2S*,3R*)]]-[3 [[3-[(3,3-Dimethyl-1-oxybutyl)amino]-2-hydroxy-4-phenylbutyl]amino]-2-hydroxy-1-(phenylmethyl)-propyl]carbamic acid, 1,1-dimethylethyl ester] |  | 1.2 µM | 78%
CC(C)(C)OC(=O)N[C@@H](Cc1ccccc1)[C@H](O)CNC[C@@H](O)[C@H](Cc1ccccc1)NC(=O)OC(C)(C)CCCOCc1ccccc1 [Compound 210, [1S-(1R*,2S*)]-[Iminobis[2-hydroxy-1-(phenylmethyl)-3,1-propanediyl]]biscarbamic acid, 1,1-dimethylethyl-4-(phenylmethoxy)-1,1-dimethylbutyl ester] | 81% | > 5 µM | 
CC(C)[C@H](NC(=O)NCc1nc2ccccc2[nH]1)C(=O)N[C@@H](Cc1ccccc1)[C@H](O)CNC[C@@H](O)[C@H](Cc1ccccc1)NC(=O)OC(C)(C)C (relative stereo) [Compound 273, [1R*,2S*(2S*,3R*)]-N^2-[[(1H-Benzimidazol-2-ylmethyl)amino]carbonyl]-N-[3-[[3-[[(1,1-dimethylethoxy)carbonyl]amino]-2-hydroxy-4-phenylbutyl]amino]-2-hydroxy-1-(phenylmethyl)propyl]-L-valinamide] | 100% | 1.7 µM | 
CC(C)[C@H](NC(=O)OCc1nc(-c2ccccc2)c[nH]1)C(=O)N[C@@H](Cc1ccccc1)[C@H](O)CNC[C@@H](O)[C@H](Cc1ccccc1)NC(=O)OC(C)(C)C (relative stereo) [Compound 265, [1R*,2S*(2S*,3R*)]-N-[3-[[3-[[(1,1-Dimethylethoxy)carbonyl]amino]-2-hydroxy-4-phenylbutyl]amino]-2-hydroxy-1-(phenylmethyl)propyl]-N^2-[[(4-phenyl-1H-imidazol-2-yl)methoxylcarbonyl]-L-valinamide] | 100% | 2.6 µM | 
CC(C)[C@H](NC(=O)OCc1nc2ccccc2[nH]1)C(=O)N[C@@H](Cc1ccccc1)[C@H](O)CNC[C@@H](O)[C@H](Cc1ccccc1)NC(=O)OC(C)(C)C [Compound 93, [S-[1R*,2S*(2S*,3R*)[[-N-[3-[[3-[[(1,1-Dimethylethoxy)carbonyl]amino]-2-hydroxy-4-phenylbutyl]amino]-2-hydroxy-1-(phenylmethyl)propyl]-N2 -]-(1H-benzimidazol-2-ylmethoxy)carbonyl]-L-valinamide] | 100% | 0.18 µM | 
CC(C)(C)OC(=O)N[C@@H](Cc1ccccc1)[C@H](O)CNC[C@@H](O)[C@H](Cc1ccccc1)NC(=O)[C@@H](NC(=O)OCCOc1ccccc1)C(C)(C)C [Compound 326, [S-[1R*,2S*(2S*,3R*)]]-[2,2-Dimethyl-1-[[[3-[[3-[[(1,1-dimethylethoxy)carbonyl]amino]-2-hydroxy-4-phenylbutyl]amino]-2-hydroxy-1-(phenylmethyl)propyl]amino]carbonyl]propyl]carbamic acid, (2-(phenyloxy)ethyl ester] | 99% | 0.03 µM | 
CC(C)(C)OC(=O)N[C@@H](Cc1ccccc1)C(O)CN(Cc1ccccc1)CC(O)[C@H](Cc1ccccc1)NC(=O)OC(C)(C)C (stereo partly drawn) [Compound 194, [2S-(2R*,2R*)]-[[(Phenylmethyl)-imino]bis[2-hydroxy-4-phenyl-3,1-butanediyl]]biscarbamic acid, bis(1,1-dimethylethyl)ester] | 0% | > 5 µM | 
CC(C)(C)OC(=O)N[C@@H](Cc1ccccc1)[C@H](O)CNC[C@@H](O)[C@H](Cc1ccccc1)NC(=O)O[C@@H]1CCc2ccccc21 [Compound 145, [1S-(1R*,2S*)]-[Iminobis[2-hydroxy-1-(phenylmethyl)-3,1-propanediyl)]biscarbamic acid, 1,1-dimethylethyl(R)-2,3-dihydro-1H-inden-1-yl ester] | 95% | > 2.2 µM | 

From patent US5760036A, “Aminediol protease inhibitors” (E. R. Squibb & Sons, Inc., priority 1995, dated 1998)
